Test results from ChEMBL document CHEMBL1135305, “Enantiospecific, selective cyclooxygenase-2 inhibitors” (Bioorg Med Chem Lett, 2002).

Key:
[1] = target: T1, Prostaglandin G/H synthase 2 (Homo sapiens, UniProt P35354); experiment: Inhibitory concentration against human prostaglandin G/H synthase 2
T1 sequence (P35354 whole entry): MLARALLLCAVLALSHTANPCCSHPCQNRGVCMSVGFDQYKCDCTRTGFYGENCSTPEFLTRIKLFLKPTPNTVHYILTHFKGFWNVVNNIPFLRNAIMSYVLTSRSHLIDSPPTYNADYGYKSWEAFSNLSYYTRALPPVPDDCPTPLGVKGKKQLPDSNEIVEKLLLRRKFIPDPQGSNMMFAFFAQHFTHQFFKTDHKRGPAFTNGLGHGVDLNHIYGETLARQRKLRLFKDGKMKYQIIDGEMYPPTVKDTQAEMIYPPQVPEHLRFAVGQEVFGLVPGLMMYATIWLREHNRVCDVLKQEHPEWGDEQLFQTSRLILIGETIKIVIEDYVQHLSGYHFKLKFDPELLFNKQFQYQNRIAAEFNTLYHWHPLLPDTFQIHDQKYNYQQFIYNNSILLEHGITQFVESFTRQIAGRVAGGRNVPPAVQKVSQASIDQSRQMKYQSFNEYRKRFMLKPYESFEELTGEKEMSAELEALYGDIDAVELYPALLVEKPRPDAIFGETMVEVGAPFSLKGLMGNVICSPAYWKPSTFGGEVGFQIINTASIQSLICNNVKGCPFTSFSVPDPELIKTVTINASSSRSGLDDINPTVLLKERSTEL

[2] = target: T2, Prostaglandin G/H synthase 1 (Ovis aries, UniProt P05979)
T2 sequence (P05979 whole entry): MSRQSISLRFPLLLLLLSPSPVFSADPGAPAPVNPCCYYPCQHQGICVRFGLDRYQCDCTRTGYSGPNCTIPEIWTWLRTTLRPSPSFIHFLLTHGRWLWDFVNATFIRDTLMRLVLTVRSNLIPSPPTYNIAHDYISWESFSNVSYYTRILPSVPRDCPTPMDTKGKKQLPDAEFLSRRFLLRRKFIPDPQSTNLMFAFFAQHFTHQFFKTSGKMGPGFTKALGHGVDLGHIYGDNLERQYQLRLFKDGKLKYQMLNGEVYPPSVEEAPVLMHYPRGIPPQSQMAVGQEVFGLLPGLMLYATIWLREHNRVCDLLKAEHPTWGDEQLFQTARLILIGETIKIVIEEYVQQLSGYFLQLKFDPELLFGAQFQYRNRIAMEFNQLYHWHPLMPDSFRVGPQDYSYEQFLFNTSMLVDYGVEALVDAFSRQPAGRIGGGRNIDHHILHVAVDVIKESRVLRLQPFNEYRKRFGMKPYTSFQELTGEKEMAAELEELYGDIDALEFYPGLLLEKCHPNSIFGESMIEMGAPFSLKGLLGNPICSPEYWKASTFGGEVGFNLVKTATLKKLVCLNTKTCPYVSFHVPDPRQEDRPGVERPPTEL
Description: Inhibitory concentration against prostaglandin G/H synthase 1

[3] = target: Prostaglandin G/H synthase 2 (Mus musculus, UniProt Q05769, F343L); experiment: Inhibitory concentration against F357L mutant murine Prostaglandin G/H synthase 2
Sequence of Prostaglandin G/H synthase 2 (Mus musculus, UniProt Q05769, F343L) (Q05769 18-604 F343L limits assumed): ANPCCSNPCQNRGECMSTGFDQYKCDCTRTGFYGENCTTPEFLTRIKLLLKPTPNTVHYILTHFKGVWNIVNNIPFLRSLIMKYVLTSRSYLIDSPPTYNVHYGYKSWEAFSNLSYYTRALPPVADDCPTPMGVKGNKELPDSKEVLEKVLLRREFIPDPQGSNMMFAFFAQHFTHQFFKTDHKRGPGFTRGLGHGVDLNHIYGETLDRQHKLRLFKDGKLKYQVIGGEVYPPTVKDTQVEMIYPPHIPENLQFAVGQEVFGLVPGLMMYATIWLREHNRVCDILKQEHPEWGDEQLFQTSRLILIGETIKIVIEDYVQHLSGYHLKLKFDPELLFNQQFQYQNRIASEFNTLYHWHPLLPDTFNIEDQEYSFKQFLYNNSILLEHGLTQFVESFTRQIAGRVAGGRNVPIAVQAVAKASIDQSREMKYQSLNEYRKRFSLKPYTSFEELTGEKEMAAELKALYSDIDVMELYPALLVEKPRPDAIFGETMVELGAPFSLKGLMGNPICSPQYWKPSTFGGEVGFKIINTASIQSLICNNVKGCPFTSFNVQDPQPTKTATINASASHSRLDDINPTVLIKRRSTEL

[4] = target: Prostaglandin G/H synthase 2 (Mus musculus, UniProt Q05769, H122N); experiment: Inhibitory concentration against H122N mutant murine Prostaglandin G/H synthase 2
[5] = target: Prostaglandin G/H synthase 2 (Mus musculus, UniProt Q05769, I92L); experiment: Inhibitory concentration against I92L mutant murine Prostaglandin G/H synthase 2
[6] = target: Prostaglandin G/H synthase 2 (Mus musculus, UniProt Q05769, R106A); experiment: Inhibitory concentration against R120A mutant murine Prostaglandin G/H synthase 2
Sequence of Prostaglandin G/H synthase 2 (Mus musculus, UniProt Q05769, R106A) (Q05769 18-604 R106A limits assumed): as the sequence (Q05769 18-604 F343L limits assumed) above, with R89A, L326F counted along it

[7] = target: Prostaglandin G/H synthase 2 (Mus musculus, UniProt Q05769, R106Q); experiment: Inhibitory concentration against R120Q mutant murine Prostaglandin G/H synthase 2
Sequence of Prostaglandin G/H synthase 2 (Mus musculus, UniProt Q05769, R106Q) (Q05769 18-604 R106Q limits assumed): as the sequence (Q05769 18-604 F343L limits assumed) above, with R89Q, L326F counted along it

[8] = target: Prostaglandin G/H synthase 2 (Mus musculus, UniProt Q05769, S105V); experiment: Inhibitory concentration against S119V mutant murine Prostaglandin G/H synthase 2
Sequence of Prostaglandin G/H synthase 2 (Mus musculus, UniProt Q05769, S105V) (Q05769 18-604 S105V limits assumed): as the sequence (Q05769 18-604 F343L limits assumed) above, with S88V, L326F counted along it

[9] = target: Prostaglandin G/H synthase 2 (Mus musculus, UniProt Q05769, S516A); experiment: Inhibitory concentration against S530A mutant murine Prostaglandin G/H synthase 2
Sequence of Prostaglandin G/H synthase 2 (Mus musculus, UniProt Q05769, S516A) (Q05769 18-604 S516A limits assumed): as the sequence (Q05769 18-604 F343L limits assumed) above, with L326F, S499A counted along it

[10] = target: T3, Prostaglandin G/H synthase 2 (Mus musculus, UniProt Q05769); experiment: Inhibitory concentration against V5231, mutant murine Prostaglandin G/H synthase 2
[11] = target: T3, Prostaglandin G/H synthase 2; experiment: Inhibitory concentration against VRV, mutant murine Prostaglandin G/H synthase 2
[12] = target: Prostaglandin G/H synthase 2 (Mus musculus, UniProt Q05769, Y101L); experiment: Inhibitory concentration against Y115L mutant murine Prostaglandin G/H synthase 2
Sequence of Prostaglandin G/H synthase 2 (Mus musculus, UniProt Q05769, Y101L) (Q05769 18-604 Y101L limits assumed): as the sequence (Q05769 18-604 F343L limits assumed) above, with Y84L, L326F counted along it

[13] = target: Prostaglandin G/H synthase 2 (Mus musculus, UniProt Q05769, S105V/Y101L); experiment: Inhibitory concentration against Y115L/S119V mutant murine Prostaglandin G/H synthase 2
Sequence of Prostaglandin G/H synthase 2 (Mus musculus, UniProt Q05769, S105V/Y101L) (Q05769 18-604 Y101L/S105V limits assumed): as the sequence (Q05769 18-604 F343L limits assumed) above, with Y84L, S88V, L326F counted along it

[14] = target: T3, Prostaglandin G/H synthase 2; experiment: Inhibitory concentration against l503F mutant murine Prostaglandin G/H synthase 2
[15] = target: T4, Prostaglandin G/H synthase 2 (Mus musculus, UniProt Q05769); experiment: Inhibitory concentration against wild type murine Prostaglandin G/H synthase 2
T4 sequence (Q05769 whole entry): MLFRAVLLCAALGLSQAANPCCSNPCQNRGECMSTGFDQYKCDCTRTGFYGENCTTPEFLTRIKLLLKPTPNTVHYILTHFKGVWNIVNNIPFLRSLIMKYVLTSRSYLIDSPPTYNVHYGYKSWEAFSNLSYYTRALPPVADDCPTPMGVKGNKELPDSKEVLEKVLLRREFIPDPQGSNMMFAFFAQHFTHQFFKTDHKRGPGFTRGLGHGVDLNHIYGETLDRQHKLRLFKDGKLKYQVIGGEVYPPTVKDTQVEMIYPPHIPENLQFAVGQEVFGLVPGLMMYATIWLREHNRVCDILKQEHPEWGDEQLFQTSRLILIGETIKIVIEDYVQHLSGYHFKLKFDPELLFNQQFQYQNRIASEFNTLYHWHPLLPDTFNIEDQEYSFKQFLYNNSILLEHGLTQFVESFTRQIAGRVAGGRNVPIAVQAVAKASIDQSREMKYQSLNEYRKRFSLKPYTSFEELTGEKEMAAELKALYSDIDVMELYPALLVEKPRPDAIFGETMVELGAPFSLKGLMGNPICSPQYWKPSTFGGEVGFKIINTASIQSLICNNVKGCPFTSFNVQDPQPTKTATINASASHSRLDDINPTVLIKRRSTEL

[16] = target: T3, Prostaglandin G/H synthase 2; experiment: Inhibitory concentration against V891 mutant murine Prostaglandin G/H synthase 2
[17] = target: Prostaglandin G/H synthase 2 (Mus musculus, UniProt Q05769, E510L); experiment: Inhibitory concentration against E524L mutant murine Prostaglandin G/H synthase 2
Sequence of Prostaglandin G/H synthase 2 (Mus musculus, UniProt Q05769, E510L) (Q05769 18-604 E510L limits assumed): as the sequence (Q05769 18-604 F343L limits assumed) above, with L326F, E493L counted along it

[18] = target: Prostaglandin G/H synthase 2 (Mus musculus, UniProt Q05769, L489F); experiment: Inhibitory concentration against L503F mutant murine Prostaglandin G/H synthase 2
Sequence of Prostaglandin G/H synthase 2 (Mus musculus, UniProt Q05769, L489F) (Q05769 18-604 L489F limits assumed): as the sequence (Q05769 18-604 F343L limits assumed) above, with L326F, L472F counted along it

| SMILES | IC50 [1] | IC50 [2] | also measured |
| --- | --- | --- | --- |
| COc1ccc2c(c1)c(CC(=O)NCCCCO)c(C)n2C(=O)c1ccc(Cl)cc1 | 280 nM | 86000 nM | – |
| COc1ccc2c(c1)c(CC(=O)NCCCCCO)c(C)n2C(=O)c1ccc(Cl)cc1 | 290 nM | > 83000 nM | – |
| COc1ccc2c(c1)c(CC(=O)NC[C@H](C)O)c(C)n2C(=O)c1ccc(Cl)cc1 | 320 nM | 32000 nM | – |
| COc1ccc2c(c1)c(CC(=O)NN1CCC[C@@H]1CO)c(C)n2C(=O)c1ccc(Cl)cc1 | 1700 nM | > 80000 nM | – |
| COc1ccc2c(c1)c(CC(=O)N[C@H](CO)CCSC)c(C)n2C(=O)c1ccc(Cl)cc1 | 1000 nM | 2300 nM | – |
| CC[C@@H](CO)NC(=O)Cc1c(C)n(C(=O)c2ccc(Cl)cc2)c2ccc(OC)cc12 | 280 nM | 350 nM | – |
| COc1ccc2c(c1)c(CC(=O)NN1CCC[C@H]1CO)c(C)n2C(=O)c1ccc(Cl)cc1 | 1800 nM | > 80000 nM | – |
| COc1ccc2c(c1)c(CC(=O)NC[C@H](O)c1ccccc1)c(C)n2C(=O)c1ccc(Cl)cc1 | 210 nM | > 63000 nM | – |
| COc1ccc2c(c1)c(CC(=O)NC[C@@H](O)c1ccccc1)c(C)n2C(=O)c1ccc(Cl)cc1 | 47 nM | 56000 nM | – |
| COc1ccc2c(c1)c(CC(=O)NC[C@@H](C)O)c(C)n2C(=O)c1ccc(Cl)cc1 | 330 nM | 52000 nM | – |
| COc1ccc2c(c1)c(CC(=O)N[C@@H](CO)CC(C)C)c(C)n2C(=O)c1ccc(Cl)cc1 | 500 nM | > 63000 nM | – |
| COc1ccc2c(c1)c(CC(=O)N[C@H](CO)C(C)C)c(C)n2C(=O)c1ccc(Cl)cc1 | 370 nM | 400 nM | – |
| COc1ccc2c(c1)c(CC(=O)N[C@@H](CO)c1ccccc1)c(C)n2C(=O)c1ccc(Cl)cc1 | 440 nM | 47000 nM | – |

The remaining compounds from weak to strong by IC50 [1], led by results:

| IC50 [1] | IC50 [2] | SMILES | also measured |
| --- | --- | --- | --- |
| 270 nM | 590 nM | COc1ccc2c(c1)c(CC(=O)N[C@@H](C)CO)c(C)n2C(=O)c1ccc(Cl)cc1 | IC50 [3]: 250 nM; IC50 [4]: 300 nM; IC50 [5]: 200 nM; IC50 [6]: 60 nM; IC50 [7]: 75 nM; IC50 [8]: 200 nM; IC50 [9]: 150 nM; IC50 [10]: 220 nM; IC50 [11]: 110 nM; IC50 [12]: 390 nM; IC50 [13]: 210 nM; IC50 [14]: 160 nM; IC50 [15]: 170 nM; IC50 [16]: 85 nM; IC50 [17]: 220 nM |
| 250 nM | 51000 nM | COc1ccc2c(c1)c(CC(=O)N[C@@H](CO)CCSC)c(C)n2C(=O)c1ccc(Cl)cc1 | – |
| 240 nM | > 60000 nM | COC[C@H](C)NC(=O)Cc1c(C)n(C(=O)c2ccc(Cl)cc2)c2ccc(OC)cc12 | – |
| 220 nM | > 50000 nM | COc1ccc2c(c1)c(CC(=O)N[C@@H](CO)Cc1ccccc1)c(C)n2C(=O)c1ccc(Cl)cc1 | – |
| 220 nM | 64000 nM | COc1ccc2c(c1)c(CC(=O)NCCCO)c(C)n2C(=O)c1ccc(Cl)cc1 | – |
| 210 nM | > 63000 nM | COc1ccc2c(c1)c(CC(=O)NCCCCCCO)c(C)n2C(=O)c1ccc(Cl)cc1 | – |
| 190 nM | 800 nM | COc1ccc2c(c1)c(CC(=O)NC(C)(C)CO)c(C)n2C(=O)c1ccc(Cl)cc1 | – |
| 170 nM | < 3900 nM | COc1ccc2c(c1)c(CC(=O)N[C@H](CO)CC(C)C)c(C)n2C(=O)c1ccc(Cl)cc1 | – |
| 170 nM | 33000 nM | COc1ccc2c(c1)c(CC(=O)N[C@H](C)CO)c(C)n2C(=O)c1ccc(Cl)cc1 | IC50 [3]: 250 nM; IC50 [4]: 690 nM; IC50 [5]: 200 nM; IC50 [18]: 300 nM; IC50 [6]: 50 nM; IC50 [7]: 90 nM; IC50 [8]: 240 nM; IC50 [9]: 570 nM; IC50 [10]: 690 nM; IC50 [11]: 340 nM; IC50 [12]: 325 nM; IC50 [13]: 290 nM; IC50 [15]: 540 nM; IC50 [16]: 250 nM; IC50 [17]: 560 nM |
| 140 nM | 6800 nM | COC[C@@H](C)NC(=O)Cc1c(C)n(C(=O)c2ccc(Cl)cc2)c2ccc(OC)cc12 | – |
| 130 nM | 180 nM | CC[C@@H](C)NC(=O)Cc1c(C)n(C(=O)c2ccc(Cl)cc2)c2ccc(OC)cc12 | – |
| 110 nM | 4700 nM | CC[C@H](C)NC(=O)Cc1c(C)n(C(=O)c2ccc(Cl)cc2)c2ccc(OC)cc12 | – |
| 110 nM | > 63000 nM | COc1ccc2c(c1)c(CC(=O)N[C@@H](CO)C(C)C)c(C)n2C(=O)c1ccc(Cl)cc1 | – |
| 110 nM | 480 nM | CCC(C)[C@@H](CO)NC(=O)Cc1c(C)n(C(=O)c2ccc(Cl)cc2)c2ccc(OC)cc12 (stereo not given in full) | – |
| 100 nM | 59000 nM | CC[C@H](CO)NC(=O)Cc1c(C)n(C(=O)c2ccc(Cl)cc2)c2ccc(OC)cc12 | – |
| 85 nM | < 1300 nM | COc1ccc2c(c1)c(CC(=O)N[C@H](CO)c1ccccc1)c(C)n2C(=O)c1ccc(Cl)cc1 | – |
| 85 nM | < 3900 nM | COc1ccc2c(c1)c(CC(=O)N[C@H](CO)Cc1ccccc1)c(C)n2C(=O)c1ccc(Cl)cc1 | – |
